# Measurements as given in patent publication US20230201179A1, “AGENT FOR TREATING CONTRAST-INDUCED ACUTE KIDNEY INJURY” (APTABIO THERAPEUTICS INC., priority 2020, published 2023).
# Key:
# [1] = system: reactive oxygen species; experiment: Inhibitory effect on the formation of reactive oxygen species
# [2] = system: contrast media-induced acute kidney injury; experiment: Efficacy evaluation in animal model with contrast media-induced acute kidney injury in mice; assay type: in vivo, C57BL/6 mice
# Protocol: As the experimental animals, 6-week-old male C57BL/6 mice were purchased from LionBio. All mice were maintained under standard conditions. After breeding for about 2 weeks, at 8 weeks of age, Compound 1 (3-phenyl-4-n-propyl-1-(pyridin-2-yl)-1H-pyrazol-5-ol hydrochloride) was orally administered at a dose of 60 mg/kg daily for 5 days before administration of contrast media. In order to induce acute kidney injury, after a fast of 16 hours, the anti-inflammatory analgesic indomethacin (10 mg/kg) and the NO blocker N-nitro-L-arginine (L-NAME, 10 mg/kg) were intraperitoneally administered 15 minutes before administration of contrast media, and contrast media (Iohexol, 4000 mg iodine/kg) was intraperitoneally administered 15 minutes later. After 24 hours of supplying food and water, the animal test substances were classified into three groups: vehicle administered group (Control) and contrast media administered group (Iohexol), and contrast media and Compound 1 simultaneously administered group (Iohexol+Compound 1). After completion of the test, the animals were anesthetized, kidney tissue was enucleated for each individual, and blood was taken for examination. The tissues were fixed in 10% buffered neutral formalin solution. The fixed tissues were sliced to a certain thickness and paraffin-embedded through a general tissue processing process to produce a tissue section of 4 to 5 μm, and then hematoxylin & eosin staining (H&E stain), which is a general staining method, was performed to observe histopathologically the extent of kidney injury in the region of the renal cortex and renal medulla, and F4/80 staining, Tunel staining, DHE staining and nitrotyrosine staining were performed to observe the effects of inflammation and oxidative stress in the kidney injury tissue. Blood was taken and centrifuged at 3000 rpm, 4° C. for 10 minutes, and the upper layer of serum was taken and the level of blood urea nitrogen (BUN) and creatinine was measured using an automatic blood biochemical analyzer (AU480, Beckman Coulter, USA) to confirm the indicator of kidney injury. Histologic evaluation of the degree of kidney injury was calculated as 0 point for no renal tubular injury, 1 point for mild injury, 2 points for intratubular vacuolar lesions less than 25-60%, and 3 points for intratubular vacuolar lesions of 60% or more, thereby formulating the average value of renal tubular injury under the microscope field of view.
# [3] = 60 mg/kg orally once a day for 5 days before Iohexol, vs contrast media-treated group
smiles,measurement,setting,value
CCCCc1c(-c2ccccc2)nn(-c2ccccn2)c1O [3-phenyl-4-butyl-1-(pyridin-2-yl)-1H-pyrazol-5-ol],inhibitory effect on the formation of reactive oxygen species,[1],inhibitory effect
CCc1c(-c2ccccc2)nn(-c2ccccn2)c1O [3-phenyl-4-ethyl-1-(pyridin-2-yl)-1H-pyrazol-5-ol],inhibitory effect on the formation of reactive oxygen species,[1],inhibitory effect
CCCc1c(-c2ccccc2)nn(-c2ccccn2)c1O [3-phenyl-4-propyl-1-(pyridin-2-yl)-1H-pyrazol-5-ol],inhibitory effect on the formation of reactive oxygen species,[1],inhibitory effect
"CCCc1c(-c2ccccc2)nn(-c2ccccn2)c1O.Cl [Compound 1, 3-phenyl-4-propyl-1-(pyridin-2-yl)-1H-pyrazol-5-ol hydrochloride]","kidney injury of the renal medulla and the renal cortex (H&E histopathology, FIG. 1)","[2]; 60 mg/kg orally once a day for 5 days before Iohexol 4000 mg iodine/kg i.p., vs contrast media-treated group",remarkably reduced
same,renal tubular injury score (FIG. 5),"[2]; 60 mg/kg orally once a day for 5 days before Iohexol, score 0-3, renal biopsy",remarkably reduced
same,"activated oxygen (reactive oxygen species, DHE staining) in the kidney tissue (FIG. 8)",[2]; [3],remarkably reduced
same,"concentration of BUN (serum, FIG. 2)",[2]; [3],decreased
same,concentration of KIM-1 in the urine (FIG. 4),[2]; [3],decreased
same,concentration of NGAL in the urine (FIG. 4),[2]; [3],decreased
same,"concentration of creatinine (Serum Cr, FIG. 3)",[2]; [3],decreased
same,concentration of microproteinuria (albumin) in the urine (FIG. 4),[2]; [3],decreased
same,"infiltration of inflammatory cells (macrophages, F4/80-positive cells) within the kidney tissue (FIG. 7)",[2]; [3],remarkably reduced
same,inflammation (MCP-1 gene expression) in the kidney tissue (FIG. 6),[2]; [3],remarkably reduced
same,nitrotyrosine in the kidney tissue (FIG. 9),[2]; [3],remarkably reduced
